# Data taken from patent US11559510B2, “Isoflavonoid composition with improved pharmacokinetics” (NOXOPHARM LIMITED, priority 2016, dated 2023).
# Assay: Extrapolation of rat rectal plasma levels to humans on a body surface area basis
# Details: extrapolated from rat rectal data
# Method: In this study, idronoxil was given to rats at a dose of 10 mg/kg body weight, yielding a plasma concentration of about 35 to 40 ng/mL up to 8 hours from a single rectal administration. This dosage equates (on a body surface area basis) to a dose in humans of about 2 mg/kg BW. Thus, a blood level range of 20-400 ng/mL could be achieved in humans with a dosage range of 1-20 mg/kg BW, and the preferred range of 80-160 ng/mL with a dosage range of 4-8 mg/kg BW.
smiles,measurement,setting,value
"Oc1ccc(C2=Cc3ccc(O)cc3OC2)cc1 [Idronoxil, 2H-1-Benzopyran-7-0,1,3-(4-hydroxyphenyl)]",blood level range that could be achieved in humans,dosage range of 1-20 mg/kg BW,20 to 400 ng/mL
same,blood level range that could be achieved in humans,dosage range of 4-8 mg/kg BW,80 to 160 ng/mL
